Values of other authors, collected in patent publication US20050154020A1, “4-Aryl piperidines” (Synaptic Pharmaceutical Corporation, priority 2004, published 2005).

Assays:
MCH1 [1] = molecular target: T1, MCH1 (Rattus norvegicus, UniProt P97639)
T1 construct: from tissue; host or cells: whole living rat (in vivo behavioural model)

MCH1 [2] = molecular target: T1, MCH1; remark: listed apart in the source
MCH1 [3] = molecular target: T2, MCH1 (Cavia porcellus, UniProt H0VKT7)
T2 construct: from tissue; host or cells: whole living guinea pig (in vivo behavioural model)
T2 sequence (H0VKT7 1-355): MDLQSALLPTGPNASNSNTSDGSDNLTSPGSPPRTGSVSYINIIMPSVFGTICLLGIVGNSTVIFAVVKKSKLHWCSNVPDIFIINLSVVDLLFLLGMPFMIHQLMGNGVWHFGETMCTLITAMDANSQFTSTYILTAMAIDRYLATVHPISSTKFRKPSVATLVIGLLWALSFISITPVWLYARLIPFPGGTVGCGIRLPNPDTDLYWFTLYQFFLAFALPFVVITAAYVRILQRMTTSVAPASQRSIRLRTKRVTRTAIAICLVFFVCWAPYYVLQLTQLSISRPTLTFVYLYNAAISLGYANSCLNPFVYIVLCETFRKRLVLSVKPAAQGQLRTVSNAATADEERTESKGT

T1 sequence (P97639 whole entry): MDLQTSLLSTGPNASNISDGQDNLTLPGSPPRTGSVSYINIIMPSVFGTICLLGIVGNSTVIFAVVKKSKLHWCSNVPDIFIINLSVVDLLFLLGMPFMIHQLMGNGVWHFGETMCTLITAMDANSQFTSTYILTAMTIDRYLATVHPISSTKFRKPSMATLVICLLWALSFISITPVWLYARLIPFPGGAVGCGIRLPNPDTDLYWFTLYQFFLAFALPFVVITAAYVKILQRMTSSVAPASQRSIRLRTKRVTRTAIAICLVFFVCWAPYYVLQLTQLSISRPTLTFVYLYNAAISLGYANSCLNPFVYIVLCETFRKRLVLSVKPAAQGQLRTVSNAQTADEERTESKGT

COCC1=C(C(=O)OC)[C@H](c2ccc(F)c(F)c2)N(C(=O)NCCCN2CCC(c3cccc(NC(C)=O)c3)CC2)C(=O)N1 [SNAP-7941]
effect in rat social interaction test (model of depression/anxiety) (MCH1 [1]): effects similar to clinically used antidepressants and anxiolytics
effect in rat forced-swim test (model of depression/anxiety) (MCH1 [2]): effects similar to clinically used antidepressants and anxiolytics
effect in guinea pig maternal-separation vocalization test (model of depression/anxiety) (MCH1 [3]): effects similar to clinically used antidepressants and anxiolytics
